Reference: PMC3127977, “No relevant cardiac, pharmacokinetic or safety interactions between roflumilast and inhaled formoterol in healthy subjects: an open-label, randomised, actively controlled study” (BMC Clinical Pharmacology, 2011)

What was measured:
healthy subjects = experiment: Transthoracic impedance cardiography (ZCG) and systolic time intervals in healthy men; oral roflumilast 500 μg once daily, inhaled formoterol 24 μg twice daily; details: Regimen A
Procedure: For Regimen A, subjects received 500 μg oral roflumilast once daily (daily dose: one tablet of roflumilast 500 μg) from the morning of Day 2 to the morning of Day 18. […] For Regimen B, subjects received 24 μg formoterol for oral inhalation delivered by a DPI device (Foradil® P) twice daily, once in the morning and once in the evening from the morning of Day 2 to the evening of Day 18.
Cardiovascular effects were evaluated non-invasively by means of ECGs (cardiac rhythm, intra-cardiac conduction and ventricular repolarisation), oscillometric blood pressure and transthoracic impedance cardiography (ZCG; systolic time intervals, contractility indices and estimates of stroke volume and cardiac output). Cardiovascular assessments (oscillometric blood pressure, pulse rate, 12-lead ECG, and three-lead ZCG) were recorded before dosing and at 10, 20, 40 and 60 minutes, and at 2, 3, 4, 5, 6, 7 and 8 hours after morning dosing. […] All cardiovascular measurements were carried out after the subjects had been recumbent for at least 10 minutes; they generally stayed in bed from 1 hour before until 8 hours after morning dosing.
Systolic time intervals (STIs) and ZCG estimates of the systolic cardiac pump performance were derived from the simultaneous registration of a one-lead ECG, a phonocardiogram (PCG), and the rate of change of the transthoracic impedance (dZ/dt) to an AC current applied through the thoracic cage (CARDIODYNAGRAPH; Diefenbach GmbH, Wiesbaden, Germany). Tracings were captured and stored digitally during the study and subsequently analysed after the study by displaying the analogue ECG, PCG and ZCG signals on a computer screen. The relevant signal amplitudes and time intervals were delineated manually by operator-steered cursors; measurements were made for at least 10 artefact-free consecutive cardiac cycles. From these tracings, the following variables were derived by direct measurement: RR interval (ms), total electromechanic systole (QS2 [ms]), ventricular ejection time (VET [ms]), baseline transthoracic impedance (Z0 [Ω]), and maximum negative velocity of transthoracic impedance changes during the cardiac cycle (dZ/dtmax [Ω/s]). These variables were analysed for the 10 cycles and their means were used in the calculations of the following variables: heart rate (HR [bpm]), pre-ejection period (PEP [ms] = QS2 - VET), HR-corrected STIs (STIc and STIi according to Weissler et al.), ZCG estimates of stroke volume (SV [mL] according to Kubicek's equation [37] using the equation of Geddes and Sadler for the specific resistance of blood), cardiac output (CO [mL/min]), and total peripheral resistance (TPR [dyn.s.cm^-5]). For the latter variable, the mean blood pressure (MBP [mmHg]) was used as calculated according to Wezler and Böger from the systolic blood pressure (mmHg) and the diastolic blood pressure (mmHg).
ZCG analysis was carried out by a single analyst who was blinded with regard to subject, study regimen, profiling day within regimen, and time during the day.

[1] = cited from earlier work
[2] = Serum potassium concentration on profiling days; details: Regimen A, Day 11
Excerpt: During the main profiling days, blood was sampled at each ZCG time point for the determination of serum glucose and potassium concentrations.

[3] = design: method as in PMID 20690782; details: cited from earlier work

O=C(Nc1c(Cl)cncc1Cl)c1ccc(OC(F)F)c(OCC2CC2)c1 [Roflumilast, 3-cyclopropylmethoxy-N-(3,5-dichloropyridin-4-yl)-4-(difluoromethoxy)benzamide]
CO, Day 1-matched post-dose maximum dmax (δ), median (healthy subjects; Day 11 (R)): 1.6 L/min | CO, Day 1-matched post-dose minimum dmin (δ), median (healthy subjects; Day 11 (R)): -1.7 L/min | CO, untransformed post-dose maximum dmax (U), median (healthy subjects; Day 11 (R)): 10.6 L/min | CO, untransformed post-dose minimum dmin (U), median (healthy subjects; Day 11 (R)): 8.3 L/min | CO, untransformed pre-dose morning value, median (healthy subjects; Day 11 (R)): 9.1 L/min | HR, Day 1-matched post-dose maximum dmax (δ), median (healthy subjects; Day 11 (R)): 9 bpm | HR, Day 1-matched post-dose minimum dmin (δ), median (healthy subjects; Day 11 (R)): -4 bpm | HR, untransformed post-dose maximum dmax (U), median (healthy subjects; Day 11 (R)): 64 bpm | HR, untransformed post-dose minimum dmin (U), median (healthy subjects; Day 11 (R)): 54 bpm | HR, untransformed pre-dose morning value, median (healthy subjects; Day 11 (R)): 63 bpm | PEP, Day 1-matched post-dose maximum dmax (δ), median (healthy subjects; Day 11 (R)): 25 ms | PEP, Day 1-matched post-dose minimum dmin (δ), median (healthy subjects; Day 11 (R)): -27 ms | PEP, untransformed post-dose maximum dmax (U), median (healthy subjects; Day 11 (R)): 121 ms | PEP, untransformed post-dose minimum dmin (U), median (healthy subjects; Day 11 (R)): 86 ms | PEP, untransformed pre-dose morning value, median (healthy subjects; Day 11 (R)): 94 ms | QS2, Day 1-matched post-dose maximum dmax (δ), median (healthy subjects; Day 11 (R)): 19 ms | QS2, Day 1-matched post-dose minimum dmin (δ), median (healthy subjects; Day 11 (R)): -34 ms | QS2, untransformed post-dose maximum dmax (U), median (healthy subjects; Day 11 (R)): 454 ms | QS2, untransformed post-dose minimum dmin (U), median (healthy subjects; Day 11 (R)): 410 ms | QS2, untransformed pre-dose morning value, median (healthy subjects; Day 11 (R)): 423 ms | TPR, Day 1-matched post-dose maximum dmax (δ), median (healthy subjects; Day 11 (R)): 126 dyn.s.cm^-5 | TPR, Day 1-matched post-dose minimum dmin (δ), median (healthy subjects; Day 11 (R)): -128 dyn.s.cm^-5 | TPR, untransformed post-dose maximum dmax (U), median (healthy subjects; Day 11 (R)): 934 dyn.s.cm^-5 | TPR, untransformed post-dose minimum dmin (U), median (healthy subjects; Day 11 (R)): 733 dyn.s.cm^-5 | TPR, untransformed pre-dose morning value, median (healthy subjects; Day 11 (R)): 838 dyn.s.cm^-5 | dZ/dt, Day 1-matched post-dose maximum dmax (δ), median (healthy subjects; Day 11 (R)): 0.28 Ω/s | dZ/dt, Day 1-matched post-dose minimum dmin (δ), median (healthy subjects; Day 11 (R)): -0.10 Ω/s | dZ/dt, untransformed post-dose maximum dmax (U), median (healthy subjects; Day 11 (R)): 1.93 Ω/s | dZ/dt, untransformed post-dose minimum dmin (U), median (healthy subjects; Day 11 (R)): 1.56 Ω/s | dZ/dt, untransformed pre-dose morning value, median (healthy subjects; Day 11 (R)): 1.67 Ω/s | CO, dmax (U), point estimate (95% CI) of difference between days (healthy subjects; Day 11-Day 1): 0.2 (-1.1 to 1.4) L/min | CO, dmin (U), point estimate (95% CI) of difference between days (healthy subjects; Day 11-Day 1): -0.4 (-1.2 to 0.4) L/min | CO, untransformed pre-dose morning value, point estimate (95% CI) of difference between days (healthy subjects; Day 11-Day 1): -0.6 (-1.7 to 0.5) L/min | HR, dmax (U), point estimate (95% CI) of difference between days (healthy subjects; Day 11-Day 1): 3 (-4 to 6) bpm | HR, dmin (U), point estimate (95% CI) of difference between days (healthy subjects; Day 11-Day 1): 4 (1 to 7) bpm | HR, untransformed pre-dose morning value, point estimate (95% CI) of difference between days (healthy subjects; Day 11-Day 1): 3 (-5 to 8) bpm | PEP, dmax (U), point estimate (95% CI) of difference between days (healthy subjects; Day 11-Day 1): 3 (-7 to 11) ms | PEP, dmin (U), point estimate (95% CI) of difference between days (healthy subjects; Day 11-Day 1): 0 (-9 to 13) ms | PEP, untransformed pre-dose morning value, point estimate (95% CI) of difference between days (healthy subjects; Day 11-Day 1): -3 (-17 to 10) ms | QS2, dmax (U), point estimate (95% CI) of difference between days (healthy subjects; Day 11-Day 1): -1 (-11 to 11) ms | QS2, dmin (U), point estimate (95% CI) of difference between days (healthy subjects; Day 11-Day 1): -9 (-21 to 8) ms | QS2, untransformed pre-dose morning value, point estimate (95% CI) of difference between days (healthy subjects; Day 11-Day 1): -10 (-21 to 2) ms | TPR, dmax (U), point estimate (95% CI) of difference between days (healthy subjects; Day 11-Day 1): 47 (-124 to 178) dyn.s.cm^-5 | TPR, dmin (U), point estimate (95% CI) of difference between days (healthy subjects; Day 11-Day 1): -18 (-96 to 43) dyn.s.cm^-5 | TPR, untransformed pre-dose morning value, point estimate (95% CI) of difference between days (healthy subjects; Day 11-Day 1): 14 (-98 to 121) dyn.s.cm^-5 | dZ/dt, dmax (U), point estimate (95% CI) of difference between days (healthy subjects; Day 11-Day 1): -0.05 (-0.25 to 0.15) Ω/s | dZ/dt, dmin (U), point estimate (95% CI) of difference between days (healthy subjects; Day 11-Day 1): 0.03 (-0.18 to 0.20) Ω/s | dZ/dt, untransformed pre-dose morning value, point estimate (95% CI) of difference between days (healthy subjects; Day 11-Day 1): -0.06 (-0.29 to 0.16) Ω/s | effect on cardiovascular function (ZCG/STI variables) (healthy subjects; roflumilast alone): little effect | median effective plasma half-life ([1]; repeated dose): 17 h | mean bioavailability ([1]; single oral 500 μg dose, healthy individuals): 79% | dose dependence of pharmacokinetics ([1]; within the 250-1000 μg dose range): dose-proportional | median pre-dose serum potassium level [2]: 4.16 mmol/L | increase in tPDE4i expected in patients with COPD compared with healthy individuals [3]: 12.6%
